In patent US12692254B2, “Benzimidazole inhibitors of PAD enzymes” (BRISTOL-MYERS SQUIBB COMPANY, priority 2018, dated 2026):

What follows are compounds tested against human PAD4 (hPAD4) (Homo sapiens, UniProt Q9UM07) (assay: RFMS human PAD4 functional assay (rapid-fire mass spectrum)). Settings: 5 nM hPAD4 enzyme, 250 μM BAEE, 50 μM Calcium; 30 min preincubation, 90 min reaction at 37° C.
Chain of human PAD4 (hPAD4) (Q9UM07 whole entry): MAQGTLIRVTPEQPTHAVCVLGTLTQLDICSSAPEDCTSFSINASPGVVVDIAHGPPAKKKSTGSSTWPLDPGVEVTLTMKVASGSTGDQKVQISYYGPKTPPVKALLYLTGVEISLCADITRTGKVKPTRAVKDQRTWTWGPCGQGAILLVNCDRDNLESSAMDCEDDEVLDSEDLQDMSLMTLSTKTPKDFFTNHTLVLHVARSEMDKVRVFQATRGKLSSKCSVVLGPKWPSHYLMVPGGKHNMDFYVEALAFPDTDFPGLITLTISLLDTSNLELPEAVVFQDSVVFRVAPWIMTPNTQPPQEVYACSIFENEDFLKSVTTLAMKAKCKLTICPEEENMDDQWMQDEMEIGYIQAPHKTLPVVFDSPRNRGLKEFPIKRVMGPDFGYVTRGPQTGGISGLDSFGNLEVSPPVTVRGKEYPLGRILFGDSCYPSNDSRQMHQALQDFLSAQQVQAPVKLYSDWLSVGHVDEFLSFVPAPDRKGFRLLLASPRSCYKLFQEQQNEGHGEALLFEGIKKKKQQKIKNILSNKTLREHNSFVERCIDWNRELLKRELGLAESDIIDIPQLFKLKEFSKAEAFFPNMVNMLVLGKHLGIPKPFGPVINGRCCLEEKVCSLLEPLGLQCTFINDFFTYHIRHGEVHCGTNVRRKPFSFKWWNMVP
Type: biochemical
Summary of the method: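 PAD4 (10 nM) preincubated 30 min with compound (top final 50 μM), then BAEE substrate added in pH 7.5 HEPES buffer with DTT, 50 μM calcium, TPEN; 90 min at 37° C. After TCA quench, citrulline derivatized with phenyl glyoxal (4 mM final, 30 min, 37° C) and quantified by RapidFire MS against internal standard.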
`COc1cc(C(=O)N2CC3CCC2[C@@H]3N)cc2nc(-c3cc4ccccc4n3CC3CC3)n(Cc3cnn(-c4ccc(C)nc4)c3)c12` (stereo partly drawn) [Example 350, (7R)-2-{2-[1-(cyclopropylmethyl)-1H-indol-2-yl]-7-methoxy-1-{[1-(6-methylpyridin-3-yl)-1H-pyrazol-4-yl]methyl}-1H-1,3-benzodiazole-5-carbonyl}-2-azabicyclo[2.2.1]heptan-7-amine] showed an IC50 of 16 nM. For `COc1cc(C(=O)N2C[C@H](N)C[C@@H](F)C2)cc2nc(-c3cc4cccnc4n3CC3CC3)n(Cc3cnn(C)c3C)c12` [Example 504, (3R,5R)-1-{2-[1-(cyclopropylmethyl)-1H-pyrrolo[2,3-b]pyridin-2-yl]-l-[(1,5-dimethyl-1H-pyrazol-4-yl)methyl]-7-methoxy-1H-1,3-benzodiazole-5-carbonyl}-5-fluoropiperidin-3-amine], the IC50 was 158 nM. Compound `COc1cc(C(=O)N2C[C@H]3CC[C@@H]2[C@@H]3N)cc2nc(-c3cc4ccccc4n3CC3CC3)n(CC3CN(c4ccnc(C)n4)C3)c12` [Example 66, (1R,4R,7R)-2-{2-[1-(cyclopropylmethyl)-1H-indol-2-yl]-7-methoxy-1-{[1-(2-methylpyrimidin-4-yl)azetidin-3-yl]methyl}-1H-1,3-benzodiazole-5-carbonyl}-2-azabicyclo[2.2.1]heptan-7-amine] has an IC50 of 39 nM. Work on `COc1cc(C(=O)N2CC3CCC2[C@@H]3N)cc2nc(-c3cc4ccccc4n3CC3CC3)n(Cc3cnn(-c4cncnc4)c3)c12` (stereo partly drawn) [Example 379, (7R)-2-{2-[1-(cyclopropylmethyl)-1H-indol-2-yl]-7-methoxy-1-{[1-(pyrimidin-5-yl)-1H-pyrazol-4-yl]methyl}-1H-1,3-benzodiazole-5-carbonyl}-2-azabicyclo[2.2.1]heptan-7-amine] yielded an IC50 of 37 nM. For `COc1ccc2cc(-c3nc4cc(C(=O)N5C[C@H]6CC[C@@H]5[C@@H]6N)cc(OC)c4n3CC3CN(c4cccc(C#N)n4)C3)n(CC3CC3)c2n1` [Example 54, 6-[3-({5-[(1R,4R,7R)-7-amino-2-azabicyclo[2.2.1]heptane-2-carbonyl]-2-[1-(cyclopropylmethyl)-6-methoxy-1H-pyrrolo[2,3-b]pyridin-2-yl]-7-methoxy-1H-1,3-benzodiazol-1-yl}methyl)azetidin-1-yl]pyridine-2-carbonitrile], the IC50 was 162 nM. `COc1cc(C(=O)N2C[C@H](N)C[C@@H](F)C2)cc2nc(-c3cc4ccccc4n3CC3CC3)n(CC3CN(C(=O)c4ccccc4)C3)c12` [Example 160, (3R,5R)-1-{1-[(1-benzoylazetidin-3-yl)methyl]-2-[1-(cyclopropylmethyl)-1H-indol-2-yl]-7-methoxy-1H-1,3-benzodiazole-5-carbonyl}-5-fluoropiperidin-3-amine] gave an IC50 of 25 nM. With `COc1cc(C(=O)N2C[C@H]3CC[C@@H]2[C@@H]3N)cc2nc(-c3cc4cccnc4n3CC3CC3)n(CC3CN(C(=O)CNC(C)=O)C3)c12` [Example 186, N-{2-[3-({5-[(1R,4R,7R)-7-amino-2-azabicyclo[2.2.1]heptane-2-carbonyl]-2-[1-(cyclopropylmethyl)-1H-pyrrolo[2,3-b]pyridin-2-yl]-7-methoxy-1H-1,3-benzodiazol-1-yl}methyl)azetidin-1-yl]-2-oxoethyl}acetamide] the IC50 was 316 nM. In the case of `COc1cc(C(=O)N2CC3CCC2[C@@H]3N)cc2nc(-c3csc4ccc(Cl)cc34)n(CC3CN(c4ccnc(C(N)=O)n4)C3)c12` (stereo partly drawn) [Example 320, 4-[3-({5-[(1R,4R,7R)-7-amino-2-azabicyclo[2.2.1]heptane-2-carbonyl]-2-(5-chloro-1-benzothiophen-3-yl)-7-methoxy-1H-1,3-benzodiazo1-1-yl}methyl)azetidin-1-yl]pyrimidine-2-carboxamide], the IC50 is reported as 1350 nM. With `COc1cc(C(=O)N2C[C@H]3CC[C@@H]2[C@@H]3N)cc2nc(-c3cc4ccc(Cl)cc4n3C)n(CC3CN(c4ccnc(C)n4)C3)c12` [Example 45, (1R,4R,7R)-2-[2-(6-chloro-1-methyl-1H-indol-2-yl)-7-methoxy-1-{[1-(2-methylpyrimidin-4-yl)azetidin-3-yl]methyl}-1H-1,3-benzodiazole-5-carbonyl]-2-azabicyclo[2.2.1]heptan-7-amine] the IC50 was 114 nM. For `COc1cc(C(=O)N2CC3CCC2[C@@H]3N)cc2nc(-c3cc4ccccc4n3CC(F)(F)F)n(Cc3cnn(C)c3)c12` (stereo partly drawn) [Example 495, (7R)-2-{7-methoxy-1-[(1-methyl-1H-pyrazol-4-yl)methyl]-2-[1-(2,2,2-trifluoroethyl)-1H-indol-2-yl]-1H-1,3-benzodiazole-5-carbonyl}-2-azabicyclo[2.2.1]heptan-7-amine], the IC50 was 88 nM. `COc1cc(C(=O)N2C[C@H]3CC[C@@H]2[C@@H]3N)cc2nc(-c3cc4cccnc4n3CC3CC3)n(C3CCN(C(=O)c4ccnc(F)c4)CC3)c12` [Example 241, (1R,4R,7R)-2-{2-[1-(cyclopropylmethyl)-1H-pyrrolo[2,3-b]pyridin-2-yl]-1-[1-(2-fluoropyridine-4-carbonyl)piperidin-4-yl]-7-methoxy-1H-1,3-benzodiazole-5-carbonyl}-2-azabicyclo[2.2.1]heptan-7-amine] gave an IC50 of 2540 nM. Work on `COc1cc(C(=O)N2C[C@H](N)C[C@@H](F)C2)cc2nc(-c3cc4ccccc4n3CC3CC3)n(CCCOc3ccc(C#N)cc3)c12` [Example 271, 4-(3-{5-[(3R,5R)-3-amino-5-fluoropiperidine-1-carbonyl]-2-[1-(cyclopropylmethyl)-1H-indol-2-yl]-7-methoxy-1H-1,3-benzodiazol-1-yl}propoxy)benzonitrile] yielded an IC50 of 145 nM. In the case of `COc1cc(C(=O)N2CC3CCC2[C@@H]3N)cc2nc(-c3csc4ccc(Cl)cc34)n(CC3CN(C(=O)OCc4ccccc4)C3)c12` (stereo partly drawn) [Example 321, benzyl 3-({5-[(1R,4R,7R)-7-amino-2-azabicyclo[2.2.1]heptane-2-carbonyl]-2-(5-chloro-1-benzothiophen-3-yl)-7-methoxy-1H-1,3-benzodiazo1-1-yl}methyl)azetidine-l-carboxylate], the IC50 is reported as 1530 nM. With `Cn1cc(Cn2c(-c3cc4cccnc4n3CC3CC3)nc3cc(C(=O)N4CC5CCC4[C@@H]5N)cc(Cl)c32)cn1` (stereo partly drawn) [Example 493, (7R)-2-{7-chloro-2-[1-(cyclopropylmethyl)-1H-pyrrolo[2,3-b]pyridin-2-yl]-1-[(1-methyl-1H-pyrazol-4-yl)methyl]-1H-1,3-benzodiazole-5-carbonyl}-2-azabicyclo[2.2.1]heptan-7-amine] the IC50 was 83 nM. `N[C@@H]1[C@@H]2CC[C@H]1N(C(=O)c1cc(Cl)c3c(c1)nc(-c1cc4ccccc4n1CC1CC1)n3CC1CN(C(=O)c3ccncc3)C1)C2` [Example 93, (3-((5-((1R,4R,7R)-7-amino-2-azabicyclo[2.2.1]heptane-2-carbonyl)-7-chloro-2-(1-(cyclopropylmethyl)-1H-indol-2-yl)-1H-benzo[d]imidazol-1-yl)methyl)azetidin-1-yl)(pyridin-4-yl)methanone] was tested, and the IC50 was 16 nM. Work on `COc1cc(C(=O)N2C[C@H](N)CC[C@@H]2C)cc2nc(-c3cc4cccnc4n3CC3CC3)n(CC3CN(C(=O)c4ccccc4)C3)c12` [Example 470, (3R,6S)-1-{1-[(1-benozylazetidin-3-yl)methyl]-2-[1-(cyclopropylmethyl)-1H-pyrrolo[2,3-b]pyridin-2-yl]-7-methoxy-1H-1,3-benzodiazole-5-carbonyl}-6-methylpiperidin-3-amine] yielded an IC50 of 177 nM. With `COc1cncc(-n2cc(Cn3c(-c4cc5ccccc5n4CC4CC4)nc4cc(C(=O)N5CC6CCC5[C@@H]6N)cc(OC)c43)cn2)c1` (stereo partly drawn) [Example 349, (7R)-2-{2-[1-(cyclopropylmethyl)-1H-indol-2-yl]-7-methoxy-1-{[1-(5-methoxypyridin-3-yl)-1H-pyrazol-4-yl]methyl}-1H-1,3-benzodiazole-5-carbonyl)-2-azabicyclo[2.2.1]heptan-7-amine] the IC50 was 15 nM. `COc1cc(C(=O)N2CC3CCC2[C@@H]3N)cc2nc(-c3cc4cccnc4n3CC3CC3)n(CC3CN(C(=O)c4cccc(F)c4)C3)c12` (stereo partly drawn) [Example 464, (7R)-2-{2-[1-(cyclopropylmethyl)-1H-pyrrolo[2,3-b]pyridin-2-yl]-1-{[1-(3-fluorobenzoyl)azetidin-3-yl]methyl}-7-methoxy-1H-1,3-benzodiazole-5-carbonyl}-2-azabicyclo[2.2.1]heptan-7-amine] showed an IC50 of 76 nM. With `CCC#CC(=O)N1CC(Cn2c(-c3cc4cccnc4n3CC3CC3)nc3cc(C(=O)N4C[C@H]5CC[C@@H]4[C@@H]5N)cc(OC)c32)C1` [Example 108, 1-[3-({5-[(1R,4R,7R)-7-amino-2-azabicyclo[2.2.1]heptane-2-carbonyl]-2-[1-(cyclopropylmethyl)-1H-pyrrolo[2,3-b]pyridin-2-yl]-7-methoxy-1H-1,3-benzodiazol-1-yl}methyl)azetidin-1-yl]pent-2-yn-1-one] the IC50 was 40 nM. For `COc1cccc(C(=O)N2CC(Cn3c(-c4cc5ccccc5n4CC4CC4)nc4cc(C(=O)N5C[C@H]6CC[C@@H]5[C@@H]6N)cc(OC)c43)C2)c1` [Example 158, (1R,4R,7R)-2-{2-[1-(cyclopropylmethyl)-1H-indol-2-yl]-7-methoxy-1-{[1-(3-methoxybenzoyl)azetidin-3-yl]methyl}-1H-1,3-benzodiazole-5-carbonyl}-2-azabicyclo[2.2.1]heptan-7-amine], the IC50 was 23 nM. `COc1cc(C(=O)N2CC3CCC2[C@@H]3N)cc2nc(-c3cc4cccnc4n3CC3CC3)n(Cc3cnn(-c4cccnc4O)c3)c12` (stereo partly drawn) [Example 374, 3-[4-({5-[(7R)-7-amino-2-azabicyclo[2.2.1]heptane-2-carbonyl]-2-[1-(cyclopropylmethyl)-1H-pyrrolo[2,3-b]pyridin-2-yl]-7-methoxy-1H-1,3-benzodiazol-1-yl}methyl)-1H-pyrazol-1-yl]pyridin-2-ol] was tested, and the IC50 was 35 nM. `COc1cc(C(=O)N2C[C@H]3CC[C@@H]2[C@@H]3N)cc2nc(-c3cc4ccccc4n3CC3CC3)n(Cc3cccs3)c12` [Example 256, (1R,4R,7R)-2-{2-[1-(cyclopropylmethyl)-1H-indol-2-yl]-7-methoxy-1-[(thiophen-2-yl)methyl]-1H-1,3-benzodiazole-5-carbonyl}-2-azabicyclo[2.2.1]heptan-7-amine] gave an IC50 of 41 nM.
